In ChEMBL document CHEMBL5728776, “Hydrocarbylsulfonyl-substituted pyridines and their use in the treatment of cancer” (2021) one finds IC50 data, which are given here for one compound.

Assay [1] concerns the target T1, Glutathione reductase, mitochondrial (Homo sapiens, UniProt P00390).
T1 sequence (P00390 whole entry): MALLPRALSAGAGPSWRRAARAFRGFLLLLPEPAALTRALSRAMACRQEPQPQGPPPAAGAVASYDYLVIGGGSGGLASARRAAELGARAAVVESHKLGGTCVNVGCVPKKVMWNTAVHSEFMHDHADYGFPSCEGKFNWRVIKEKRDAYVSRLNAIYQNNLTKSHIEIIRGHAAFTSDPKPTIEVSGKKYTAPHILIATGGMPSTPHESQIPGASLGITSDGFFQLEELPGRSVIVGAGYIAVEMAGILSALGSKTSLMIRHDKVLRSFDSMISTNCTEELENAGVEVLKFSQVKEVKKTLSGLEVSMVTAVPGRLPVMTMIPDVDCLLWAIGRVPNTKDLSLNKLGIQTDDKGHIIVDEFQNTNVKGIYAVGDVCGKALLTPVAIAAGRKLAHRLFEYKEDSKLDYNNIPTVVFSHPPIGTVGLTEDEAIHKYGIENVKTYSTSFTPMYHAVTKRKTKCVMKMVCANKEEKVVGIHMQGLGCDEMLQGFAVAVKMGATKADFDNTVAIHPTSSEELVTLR
As to the kind of experiment: (§1) Inhibition of Recombinant TrxR1: Small molecule inhibition of recombinant thioredoxin reductase 1 (TrxR1) and gluthathione reductase (GR) was examined in 96-well plate format. 30 nM TrxR1 was incubated in the presence of 250 μM NADPH, 0.1 mg/ml BSA, and various concentrations of compound (1% DMSO final) in 50 mM Tris (pH 7.5) and 2 mM EDTA buffer for 15 minutes. Following the incubation period, 2 mM DTNB was added to each well and the change in O.D. at 412 nm was followed. Percent activity was determined using DMSO vehicle and no TrxR1 (blank) controls. 2 nM GR was incubated in the presence of 250 μM NADPH, 0.1 mg/ml BSA, and various concentrations of compounds (1% DMSO final) in 50 mM Tris (pH 7.5) and 2 mM EDTA buffer for 15 minutes. Following the incubation period, 1 mM GSSG was added to each well and the change in O.D. at 340 nm was followed. Percent activity was determined using DMSO vehicle and no GR (blank) controls.

Assay [2] addresses T2, Thioredoxin reductase 1, cytoplasmic (Homo sapiens, UniProt Q16881).
T2 sequence (Q16881 whole entry): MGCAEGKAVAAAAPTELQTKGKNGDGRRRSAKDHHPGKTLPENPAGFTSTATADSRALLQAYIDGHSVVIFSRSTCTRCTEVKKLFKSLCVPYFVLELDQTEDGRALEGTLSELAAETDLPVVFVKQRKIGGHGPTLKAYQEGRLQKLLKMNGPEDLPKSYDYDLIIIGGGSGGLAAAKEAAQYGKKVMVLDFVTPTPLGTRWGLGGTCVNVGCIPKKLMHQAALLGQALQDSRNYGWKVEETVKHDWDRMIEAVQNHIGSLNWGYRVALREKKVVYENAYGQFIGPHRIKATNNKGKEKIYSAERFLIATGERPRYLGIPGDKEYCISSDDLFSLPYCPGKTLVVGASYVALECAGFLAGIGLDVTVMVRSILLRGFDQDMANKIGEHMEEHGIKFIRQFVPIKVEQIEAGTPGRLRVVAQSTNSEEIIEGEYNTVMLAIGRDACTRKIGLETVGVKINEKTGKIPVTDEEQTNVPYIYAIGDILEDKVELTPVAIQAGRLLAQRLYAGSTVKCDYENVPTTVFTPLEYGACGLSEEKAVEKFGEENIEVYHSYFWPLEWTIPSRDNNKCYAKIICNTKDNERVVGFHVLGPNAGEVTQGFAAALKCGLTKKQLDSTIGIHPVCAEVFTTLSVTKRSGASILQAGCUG
The assay is described as §1.

What is called IC50 is the concentration that inhibits the measured activity by half.

On to `CN(C)c1ccc([N+](=O)[O-])c(S(=O)(=O)Cc2ccccc2)n1`, for which the IC50 in assay [1] was above 100000 nM; in assay [2], 276 nM.
